One assay deals with non-tumor CHO cells. Put plainly: CellTiter-Glo Luminescent Cell Viability Assay. Format: cell-based, Chinese hamster. To be noted: for IC50: Cricetulus griseus, 48 h treatment, read-out: IC50 (estimated). The protocol: Conjugates 9b and 9e were selected based on their antitumor effects to be tested on non-tumor CHO cells in the CellTiter-Glo Luminescent Cell Viability Assay to investigate their potential selectivity for cancer cells. Following a 48 h treatment with the conjugates in the 0.10–10 µM concentration range, a concentration-dependent decrease in the luminescent signal was observed, indirectly representing the ATP production of living cells as an indicator of cell viability.
Conjugates 9b and 9e were dissolved in DMSO in 10 mM stock solutions and stored frozen until use. CHO cells were cultured in complete Dulbecco’s Modified Eagle’s Medium (DMEM, low glucose (1 g/L) supplemented with 10% fetal bovine serum, 1% Gibco GlutaMAX-I (100×) solution, 1% Gibco MEM non-essential amino acid solution (100×), and 0.1% penicillin–streptomycin mixture). The CellTiter-Glo Luminescent Cell Viability Assay (Promega Corporation, Madison, WI, USA) was performed as previously described. Cells were grown under standard cell culture conditions (37 °C, 5% CO2) and passaged at 70–80% confluency. According to the manufacturer’s protocol, CHO cells were seeded to opaque 96-well culture plates (5000 cells/100 µL complete DMEM/well) and the side rows and columns of the plate were filled with sterile phosphate-buffer saline to avoid artifacts. […] The luminescent signal was measured for each assay well with an EnSpire AlphaLisa microplate reader (Perkin Elmer, Inc., Waltham, MA, USA). […] Estimated IC50 values were calculated using non-linear regression by fitting a sigmoidal dose-response curve to the data points (log(inhibitor) vs. normalized response, variable slope, and least squares fit).
Statistical analysis (ANOVA) and estimation of IC50 values were performed in GraphPad Prism 8.0.1 (GraphPad, La Jolla, CA, USA). Estimated IC50 values were calculated using non-linear regression by fitting a sigmoidal dose-response curve to the data points (log(inhibitor) vs. normalized response, variable slope, least squares fit).

The next assay has as its system NIH/3T3 (fibroblast). Kind of assay: MTT antiproliferative assay. To be noted: Mus musculus, 72 h. Format: cell-based. The protocol:
The antiproliferative properties of the tested compounds were additionally determined using the MTT assay against a panel of human adherent cancer cell lines isolated from breast (MCF-7 and MDA-MB-231), cervical (HeLa and SiHa), and ovarian (A2780) tumors and also on the NIH/3T3 fibroblast cell line (Table 3). IC50 values were calculated from a wider concentration range (0.1–30 μM) when higher than 50% cell growth inhibition was obtained at 10 μM (Table 4). Cisplatin was used as a reference compound. […] The noncancerous fibroblast cell line NIH/3T3 was used to gather preliminary data regarding the cancer selectivity of vindolin derivatives. […] The tumor selectivity of compound 9g, expressed as the ratio of IC50 on cancer cells and fibroblasts, is substantially higher than that of cisplatin (Table 4).
The antiproliferative effects of the prepared derivatives were evaluated in vitro using the MTT assay against a panel of human adherent cancer cell lines, including breast (MDA-MB-231, MCF-7), cervical (SiHa, HeLa), and ovarian (A2780) cancer cells. The noncancerous fibroblast cell line NIH/3T3 was included to obtain data concerning the tumor selectivity of the test substances. All cell lines were sourced from the European Collection of Cell Cultures (Salisbury, UK), except for SiHa (American Tissue Culture Collection (Manassas, VA, USA). All cell lines were maintained in Eagle’s Minimal Essential Medium (EMEM) supplemented with 10% fetal bovine serum (FBS), 1% non-essential amino acids, and a mixture of penicillin, streptomycin, and amphotericin B. The cells were maintained in a humidified atmosphere containing 5% CO2 at 37 °C. The media and the cell culture supplements were procured from Capricorn Scientific Ltd. (Ebsdorfergrund, Germany). Cells were seeded into 96-well microplates at 5000/well and, the next day, treated with vindoline derivatives at two concentrations (10 or 30 μM) for 72 h under cell culturing conditions. […] When higher than 50% cell growth inhibition was observed, the assay was repeated using a wide concentration range (0.1–30 μM). The IC50 values were calculated using GraphPad Prism software 10.3.1 (GraphPad Software, San Diego, CA, USA). Two independent experiments were performed with at least five replicates per condition.

Structures are written as SMILES.

For `CC[C@]12C=CCN3CC[C@@]4(c5ccc(OC)cc5N(C)[C@H]4[C@@](O)(C(=O)OC)[C@@H]1OC(=O)CCC[P+](c1ccc(OC)cc1)(c1ccc(OC)cc1)c1ccc(OC)cc1)[C@@H]32` [9b], the IC50 with non-tumor CHO cells was 2.98 µM.

In the case of `CC[C@]12C=CCN3CC[C@@]4(c5ccc(OC)cc5N(C)[C@H]4[C@@](O)(C(=O)OC)[C@@H]1OC(=O)CCC[P+](c1cc(C)c(OC)c(C)c1)(c1cc(C)c(OC)c(C)c1)c1cc(C)c(OC)c(C)c1)[C@@H]32` [9e], the decrease in viability in the assay with non-tumor CHO cells (1.0 µM, 48 h) was 26.4 ± 5.8%. In addition, the IC50 in the assay on non-tumor CHO cells was 1.36 µM.

Take `CC[C@]12C=CCN3CC[C@@]4(c5ccc(OC)cc5N(C)[C@H]4[C@@](O)(C(=O)OC)[C@@H]1OC(=O)CCC[P+](c1ccccc1)(c1ccccc1)c1ccccn1)[C@@H]32` [9g]: in the assay on NIH/3T3 (fibroblast) (NIH3T3, 10 μM, read-out: Growth Inhibition (%) ± SEM), the inhibition at 10 µM was found to be 34.6 ± 1.11%. In addition, the inhibition at 30 µM with NIH/3T3 (fibroblast) (NIH3T3, 30 μM, read-out: Growth Inhibition (%) ± SEM (converted)) is 77.2%. Further, the IC50 in the assay with NIH/3T3 (fibroblast) (NIH3T3, MTT, read-out: IC50 Value (μM) ± SEM) is 14.37 ± 0.02 µM.

The term IC50 denotes the midpoint of a concentration-inhibition curve. For orientation: inhibition means the relative decrease from the control value, in per cent.

Source of the values: paper PMC12028158, “Synthesis and In Vitro Evaluation of the Anticancer Effect of Novel Phosphonium Vindoline Derivatives” (International Journal of Molecular Sciences, 2025).
